{"source": "ChEMBL document CHEMBL5226349", "about": "“Novel Antimicrobial 8-Hydroxyquinoline-Based Agents: Current Development, Structure-Activity Relationships, and Perspectives” (J Med Chem, 2021)", "key": {"[1]": {"system": "Mycobacterium tuberculosis", "assay": "Antibacterial activity against Mycobacterium tuberculosis", "type": "functional"}, "Candida albicans": {"system": "Candida albicans", "assay": "Antifungal activity against Candida albicans", "type": "functional"}, "[2]": {"assay": "Inhibition of Mycobacterium tuberculosis Zmp1"}, "[3]": {"assay": "Inhibition of Mycobacterium tuberculosis FBA"}, "[4]": {"system": "Mycobacterium tuberculosis", "assay": "Antibacterial activity against aged non-growing Mycobacterium tuberculosis", "type": "functional"}, "[5]": {"assay": "Inhibition of Mycobacterium tuberculosis MetAP1c"}, "[6]": {"biological_target": "Methionine aminopeptidase 2 (Homo sapiens, UniProt P50579)", "sequence (P50579 whole entry)": "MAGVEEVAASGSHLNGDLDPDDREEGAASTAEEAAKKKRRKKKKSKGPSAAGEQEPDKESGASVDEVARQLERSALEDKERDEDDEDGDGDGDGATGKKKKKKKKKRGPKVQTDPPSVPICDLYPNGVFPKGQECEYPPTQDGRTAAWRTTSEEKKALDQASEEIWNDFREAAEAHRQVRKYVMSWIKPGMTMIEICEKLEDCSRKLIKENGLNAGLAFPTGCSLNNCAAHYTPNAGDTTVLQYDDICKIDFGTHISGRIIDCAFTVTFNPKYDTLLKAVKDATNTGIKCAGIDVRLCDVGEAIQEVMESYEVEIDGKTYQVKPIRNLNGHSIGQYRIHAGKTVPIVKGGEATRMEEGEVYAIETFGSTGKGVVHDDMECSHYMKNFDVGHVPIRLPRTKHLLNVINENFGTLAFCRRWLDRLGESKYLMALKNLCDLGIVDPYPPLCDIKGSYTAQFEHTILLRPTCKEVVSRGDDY", "assay": "Inhibition of human MetAP2"}, "[7]": {"biological_target": "Methionine aminopeptidase 1 (Homo sapiens, UniProt P53582)", "assay": "Inhibition of human MetAP1"}, "[8]": {"assay": "Inhibition of Mycobacterium tuberculosis MetAP1a"}, "Chlamydia": {"system": "Chlamydia", "assay": "Antibacterial activity against Chlamydia", "type": "functional"}, "[9]": {"biological_target": "Botulinum neurotoxin type F (Clostridium botulinum, UniProt P30996)", "sequence (P30996 1-436 limits assumed)": "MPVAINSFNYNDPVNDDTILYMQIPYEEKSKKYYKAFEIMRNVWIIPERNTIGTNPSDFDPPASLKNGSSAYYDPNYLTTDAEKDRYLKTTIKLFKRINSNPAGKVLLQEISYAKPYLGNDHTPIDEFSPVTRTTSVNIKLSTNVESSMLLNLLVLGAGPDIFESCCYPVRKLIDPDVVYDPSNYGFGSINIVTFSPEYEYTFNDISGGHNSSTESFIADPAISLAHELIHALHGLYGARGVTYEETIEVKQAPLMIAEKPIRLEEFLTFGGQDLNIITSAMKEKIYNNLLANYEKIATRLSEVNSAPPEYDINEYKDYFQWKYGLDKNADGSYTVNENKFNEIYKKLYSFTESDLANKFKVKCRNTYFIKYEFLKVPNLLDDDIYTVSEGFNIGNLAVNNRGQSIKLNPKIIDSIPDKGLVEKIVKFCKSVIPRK", "assay": "Inhibition of Botulinum neurotoxins/F"}, "Nakaseomyces glabratus": {"system": "Nakaseomyces glabratus", "assay": "Antifungal activity against Candida glabrata", "type": "functional"}, "[10]": {"assay": "Inhibition of bacterial New Delhi metallo-beta-lactamase 1", "parameters": "species or system Bacteria"}, "[11]": {"assay": "Inhibition of bacterial VIM-2", "parameters": "species or system Bacteria"}, "[12]": {"assay": "Cytotoxicity against human HeLa cells", "type": "toxicity, cell-based"}, "[13]": {"system": "Staphylococcus epidermidis", "assay": "Antibiofilm activity against methicillin-resistant Staphylococcus epidermidis", "type": "functional"}, "Enterococcus": {"system": "Enterococcus", "assay": "Antibiofilm activity against vancomycin-resistant Enterococcus", "type": "functional"}, "Staphylococcus aureus": {"system": "Staphylococcus aureus", "assay": "Antibiofilm activity against methicillin-resistant Staphylococcus aureus", "type": "functional"}, "[14]": {"assay": "Inhibition of Aeromonas proteolytica aminopeptidase", "parameters": "species or system Vibrio proteolyticus"}, "[15]": {"assay": "Inhibition of human zinc metalloprotease"}, "Aspergillus": {"system": "Aspergillus", "assay": "Antifungal activity against Aspergillus", "type": "functional"}, "Trichophyton": {"system": "Trichophyton", "assay": "Antifungal activity against Trichophyton", "type": "functional"}, "Microsporum": {"system": "Microsporum", "assay": "Antifungal activity against Microsporum", "type": "functional"}, "[16]": {"biological_target": "Botulinum neurotoxin type A (Clostridium botulinum, UniProt P0DPI0)", "sequence (P0DPI0 2-448 limits assumed)": "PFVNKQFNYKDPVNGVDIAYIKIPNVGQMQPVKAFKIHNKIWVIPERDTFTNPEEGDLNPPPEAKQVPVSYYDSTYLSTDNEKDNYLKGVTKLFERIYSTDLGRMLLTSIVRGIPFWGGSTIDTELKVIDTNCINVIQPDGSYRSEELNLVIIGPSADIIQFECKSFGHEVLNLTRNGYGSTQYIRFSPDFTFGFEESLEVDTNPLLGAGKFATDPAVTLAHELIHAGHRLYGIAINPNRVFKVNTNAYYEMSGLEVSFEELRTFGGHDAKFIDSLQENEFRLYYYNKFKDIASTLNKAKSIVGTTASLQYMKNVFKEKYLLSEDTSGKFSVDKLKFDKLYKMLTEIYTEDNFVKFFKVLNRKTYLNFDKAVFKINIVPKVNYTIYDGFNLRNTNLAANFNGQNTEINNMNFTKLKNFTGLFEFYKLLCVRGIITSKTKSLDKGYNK", "assay": "Inhibition of Botulinum neurotoxins/A"}}}
{"smiles": "Nc1ccc2cccc(O)c2n1", "values": [{"measurement": "MIC", "setting": "[1]", "value": 4.6, "unit": "µM"}]}
{"smiles": "O=C(O)c1ccc(O)c2ncccc12", "values": [{"measurement": "MIC", "setting": "Candida albicans", "value": 1250, "unit": "µM"}]}
{"smiles": "O=C(O)c1ccc2cccc(O)c2n1", "values": [{"measurement": "IC50", "setting": "[2]", "value": "> 10", "unit": "µM"}, {"measurement": "IC50", "setting": "[3]", "value": 10, "unit": "µM"}]}
{"smiles": "Oc1c(Br)cc(Cl)c2cccnc12", "values": [{"measurement": "MIC", "setting": "[1]", "value": 19.3, "unit": "µM"}, {"measurement": "MIC", "setting": "[4]", "value": 2.51, "unit": "µM"}, {"measurement": "IC50", "setting": "[5]", "value": 4.92, "unit": "µM"}, {"measurement": "IC50", "setting": "[6]", "value": 112, "unit": "µM"}, {"measurement": "IC50", "setting": "[7]", "value": 105, "unit": "µM"}, {"measurement": "IC50", "setting": "[8]", "value": 5.44, "unit": "µM"}]}
{"smiles": "O=[N+]([O-])c1cc(CN2CCN(c3ccccc3)CC2)c(O)c2ncccc12", "values": [{"measurement": "MBC", "setting": "Chlamydia", "value": 25, "unit": "µM"}]}
{"smiles": "Oc1cccc2ccc(/C=C/c3ccccc3Cl)nc12", "values": [{"measurement": "MIC", "setting": "[1]", "value": 5.8, "unit": "µM"}]}
{"smiles": "Cc1ccnc(NC(c2ccccc2)c2ccc3cccnc3c2O)c1", "note": "(stereo not given)", "values": [{"measurement": "IC50", "setting": "[9]", "value": 14.9, "unit": "µM"}]}
{"smiles": "O=C(O)c1ccc(NC(c2ccccc2)c2ccc3cccnc3c2O)cc1", "note": "(stereo not given)", "values": [{"measurement": "IC50", "setting": "[9]", "value": 30.5, "unit": "µM"}]}
{"smiles": "O=[N+]([O-])c1cc(CN2CCN(c3ccc(F)cc3)CC2)c(O)c2ncccc12", "values": [{"measurement": "MBC", "setting": "Chlamydia", "value": 3.13, "unit": "µM"}]}
{"smiles": "O=[N+]([O-])c1cc(CN2CCC(c3ccccc3)C2)c(O)c2ncccc12", "note": "(stereo not given)", "values": [{"measurement": "MBC", "setting": "Chlamydia", "value": 12.5, "unit": "µM"}]}
{"smiles": "Oc1cccc2ccc(Nc3ccccc3)nc12", "values": [{"measurement": "MIC", "setting": "[1]", "value": "> 20", "unit": "µM"}]}
{"smiles": "Oc1c(Cl)cc(Cl)c2ccc(/C=C/c3ccc(/C=C/c4ccc5c(Cl)cc(Cl)c(O)c5n4)cc3)nc12", "values": [{"measurement": "MIC", "setting": "[1]", "value": "> 72.2", "unit": "µM"}]}
{"smiles": "O=S(=O)(O)c1ccc(O)c2ncccc12", "values": [{"measurement": "MIC", "setting": "Candida albicans", "value": 4.44, "unit": "µM"}, {"measurement": "MIC", "setting": "Nakaseomyces glabratus", "value": 4.44, "unit": "µM"}]}
{"smiles": "O=C(Nc1cccc(Cl)c1)c1ccc2cccc(O)c2n1", "values": [{"measurement": "MIC", "setting": "[1]", "value": 50, "unit": "µM"}]}
{"smiles": "O=C(Nc1ccccc1Br)c1ccc2cccc(O)c2n1", "values": [{"measurement": "MIC", "setting": "[1]", "value": 23, "unit": "µM"}]}
{"smiles": "O=C(Nc1cccc(C(F)(F)F)c1)c1ccc2cccc(O)c2n1", "values": [{"measurement": "MIC", "setting": "[1]", "value": 24, "unit": "µM"}]}
{"smiles": "O=C(Nc1ccc(C(F)(F)F)cc1)c1ccc2cccc(O)c2n1", "values": [{"measurement": "MIC", "setting": "[1]", "value": 24, "unit": "µM"}]}
{"smiles": "O=C(Nc1ccccc1[N+](=O)[O-])c1ccc2cccc(O)c2n1", "values": [{"measurement": "MIC", "setting": "[1]", "value": 97, "unit": "µM"}]}
{"smiles": "O=C(O)c1ccc2cccnc2c1O", "values": [{"measurement": "IC50", "setting": "[10]", "value": 0.76, "unit": "µM"}, {"measurement": "IC50", "setting": "[11]", "value": 0.74, "unit": "µM"}]}
{"smiles": "CCOC(=O)c1cc2c(Br)cc(Br)c(O)c2nc1C", "values": [{"measurement": "IC50", "setting": "[12]", "value": "> 100", "unit": "µM"}]}
{"smiles": "Oc1cccc2ccc(N3CCCCC3)nc12", "values": [{"measurement": "MIC", "setting": "[1]", "value": "> 20", "unit": "µM"}]}
{"smiles": "Oc1c(Br)cc(Br)c2ccc(CNc3ccc(F)cc3)nc12", "values": [{"measurement": "MBEC", "setting": "[13]", "value": 5.9, "unit": "µM"}, {"measurement": "MBEC", "setting": "Enterococcus", "value": 1, "unit": "µM"}, {"measurement": "MBEC", "setting": "Staphylococcus aureus", "value": 93.8, "unit": "µM"}]}
{"smiles": "Cc1ccc2ccc(C(=O)NCc3ccc(F)cc3)c(O)c2n1", "values": [{"measurement": "MIC", "setting": "[1]", "value": "> 500", "unit": "µM"}]}
{"smiles": "COc1ccc(CNC(=O)c2ccc3ccc(C)nc3c2O)cc1", "values": [{"measurement": "MIC", "setting": "[1]", "value": "> 500", "unit": "µM"}]}
{"smiles": "Cc1ccc2ccc(C(=O)NCc3ccccc3)c(O)c2n1", "values": [{"measurement": "MIC", "setting": "[1]", "value": "> 500", "unit": "µM"}]}
{"smiles": "Cc1ccc(CNC(=O)c2ccc3ccc(C)nc3c2O)cc1", "values": [{"measurement": "MIC", "setting": "[1]", "value": "> 500", "unit": "µM"}]}
{"smiles": "COc1cccc(/C=C/c2ccc3cccc(O)c3n2)c1", "values": [{"measurement": "MIC", "setting": "[1]", "value": "> 200", "unit": "µM"}]}
{"smiles": "Oc1ccc(C(F)(F)F)c2cccnc12", "values": [{"measurement": "Ki", "setting": "[14]", "value": 0.37, "unit": "µM"}]}
{"smiles": "O=C(NOCc1ccccc1)c1ccc2cccc(O)c2n1", "values": [{"measurement": "IC50", "setting": "[2]", "value": 0.011, "unit": "µM"}, {"measurement": "IC50", "setting": "[15]", "value": "≥ 1", "unit": "µM"}]}
{"smiles": "CC(=O)N1CCN(c2nc(Nc3ccc(C#N)c(C(F)(F)F)c3)nc(Oc3cccc4cccnc34)n2)CC1", "values": [{"measurement": "MIC", "setting": "[1]", "value": 117, "unit": "µM"}, {"measurement": "MIC", "setting": "Aspergillus", "value": 9.8, "unit": "µM"}]}
{"smiles": "COc1cc(OC)nc(Nc2ccc3cccnc3c2O)n1", "values": [{"measurement": "MIC", "setting": "Trichophyton", "value": 3.35, "unit": "µM"}, {"measurement": "MIC", "setting": "Microsporum", "value": 3.35, "unit": "µM"}]}
{"smiles": "O=S(=O)(NC(c1cccc(F)c1)c1cc(Cl)c2cccnc2c1O)c1ccccc1", "note": "(stereo not given)", "values": [{"measurement": "IC50", "setting": "[16]", "value": 5.8, "unit": "µM"}]}
{"smiles": "O=C(NCCO[C@H]1O[C@H](CO)[C@@H](O)[C@H](O)[C@@H]1O)c1ccc2cccnc2c1O", "values": [{"measurement": "MIC", "setting": "Candida albicans", "value": 10000, "unit": "µM"}]}
{"smiles": "NS(=O)(=O)c1cc(Cl)c2cccnc2c1O", "values": [{"measurement": "Ki", "setting": "[14]", "value": "> 100", "unit": "µM"}]}
{"smiles": "O=C(O)c1ccc2ccc(/C=C/c3ccccc3Cl)nc2c1O", "values": [{"measurement": "MIC", "setting": "[1]", "value": 120, "unit": "µM"}]}
{"smiles": "Clc1cc2c(c3ncccc13)OCN(C1CCCCC1)C2", "values": [{"measurement": "IC50", "setting": "[5]", "value": 3.76, "unit": "µM"}, {"measurement": "IC50", "setting": "[8]", "value": 4.3, "unit": "µM"}]}
